Test [1] has as its system Type IV PDE. The test can be described thus: PDE inhibitory activity, type IV isozyme (3H-cAMP hydrolysis). The test is classed as biochemical. As to conditions: partially purified from rat neutrophils, 30° C., 30 minutes. On the procedure:
Type I, III, IV, and V PDE isozymes were prepared to study the PDE inhibitory activities and selectivities with the compound of the invention [Trends Pharmacol. Sci., 12, 19-27 (1992)]. Type I PDE was purchased from Sigma Corp. Type III, IV, and V PDE isozymes were partially purified from rats platelets (Type III and V) or neutrophils (Type IV). Each enzyme source was homogenized in a buffer (pH 6.5) containing 20 mM bisTris, 2 mM EDTA (ethylenediamine tetraacetate), 0.1 mM PMSF (phenylmethylsulfonyl fluoride), 5 mM 2-mercaptoethanol, 0.001 mM pepstatin, and 0.01 mM leupeptin and was centrifuged at 30,000×G for 30 minutes to obtain a supernatant, which was applied to an ion exchange column (Q-sepharose First Flow, Pharmacia Corp.) and was eluted with 0 to 1M sodium acetate. Partially purified isozymes were identified by observing the effects of conventional inhibitors.
Each PDE isozyme and the test compound dissolved in DMSO (dimethyl sulfoxide) were added to 50 mM Tris-HCl buffer containing 5 mM magnesium chloride. ^3 H-cAMP (for type III and IV PDE) or ^3 H-cGMP (for type I and V PDE) were added as substrates and were reacted at 30° C. for 30 minutes. The reaction was terminated by placing the test tube in boiling water of 100° C. for 5 minutes. The nucleotides formed by PDE were broken down by 5'-nucleotidase to ^3 H-adenosine or ^3 H-guanosine. The unreacted substrate and reaction product were separated through an ion-exchange column (QAE sephadex, Pharmacia Corp.) The eluted ^3 H-nucleoside was measured for its radioactivity by a liquid scintillation counter. The inhibiting activities of the compound of the present invention are shown by the IC50 value (M). Further, the inhibitory activities of the test samples against Type I, III, and V are 1/10 or less than that against type IV.

Test [2] concerns rat neutrophils. The experiment in a line: Inhibition of super oxide anion release from rat neutrophils (A23187-stimulated chemiluminescence). It counts as cell-based, rat (Wister). To be noted: Neutrophil, stimulated with 0.3 μM calcium ionophore A23187, read-out: Inhibitory action of super oxide anion release from rat neutrophils IC50. On the procedure: The release of super oxide anions was measured so as to study the inhibitory effects of the compound on inflammatory leukocytes, that is, neutrophils.
Blood sample was obtained from Wister rats anesthetized with ether. It was superposed on a blood cell separation solution (Polymorphoprep 1.113, made by Naicomet Co. (phonetic)) and the neutrophils were separated by centrifugation. The neutrophils were resuspended in a Hank's balanced salt solution at a concentration of 0.5×10^4 cell/ml. 0.1 mM of Lusigenin and the test substance dissolved in DMSO were added to 2 ml of the cell-suspension. The chemiluminescence generated by stimulation of 0.3 μM calcium ionophore A23187 was measured by a chemiluminescence reader so as to evaluate the release of super oxide anions.

For test [3], the system named is antigen-induced bronchospasm in guinea pig. The experiment in a line: Inhibitory effect on antigen-induced bronchospasm (Konzett-Roessler, ovalbumin-sensitized). It counts as in vivo, guinea pig (Hartley male). To be noted: Cavia porcellus; intravenous, 10 minutes before antigen (0.2 mg/kg OA i.v.); read-out: Action for suppressing antigen-induced bronchospasms ED50. On the procedure:
A Hartley male guinea pig was sensitized by intramuscular administration of […] Ovalbumin (OA) on first day and fourth day, and used after 24th day. A trachial canula was introduced in the guinea pig anesthetized with pentobarbital and artificial ventilation was performed 25 to 29 days after the first sensitization. The overflow of the ventilation was measured by the Konzett-Roessler method while 0.2 mg/kg OA were administered intravenously. The test compound was dissolved in polyethylene glycol 400 and intravenously administered 10 minutes before administration of the antigens.

We go through 28 compounds from patent US6251897A, “6-phenyltetrahydro-1,3-oxazin-2-one derivative and pharmaceutical composition containing the same” (Nikken Chemicals Co., LTD, priority 1996, dated 2001).

As a reminder, the IC50 is the concentration that gives 50% inhibition. In general, ED50 refers to the dose at which the effect has come halfway, by size or by number of responders.

Take `COc1ccc(C2CCNC(=O)O2)cc1OC` (centres unmarked) [Compound No. 1, 6-(3,4-dimethoxyphenyl)-3,4,5,6-tetrahydro-2H-1,3-oxazin-2-one]: the IC50 is 10000 nM in test [1] and 8.8 µM in test [2].

Compound `COc1ccc(C2CCNC(=O)O2)cc1OCC1CC1` (centres unmarked) [Compound No. 4, 6-(3-cyclopropylmethyloxy-4-methoxyphenyl)-3,4,5,6-tetrahydro-2H-1,3-oxazin-2-one] came in with an IC50 in test [1] of 3200 nM. In addition, the ED50 in test [3] is 0.23 mg/kg.

`COc1ccc(C2(C)CCNC(=O)O2)cc1OC1CCCC1` (centres unmarked) [Compound No. 6, 6-(3-cyclopentyloxy-4-methoxyphenyl)-6-methyl-3,4,5,6-tetrahydro-2H-1,3-oxazin-2-one]: in test [1], the IC50 turned out to be 1100 nM. For the same compound, in test [3], the ED50 came to 0.3 mg/kg.

Regarding `COc1ccc(C2CCN(C)C(=O)O2)cc1OC` (centres unmarked) [Compound No. 8, 6-(3,4-dimethoxyphenyl)-3-methyl-3,4,5,6-tetrahydro-2H-1,3-oxazin-2-one], the IC50 in test [1] came out at 19000 nM; in test [2], 4.1 µM.

As for `COc1ccc(C2CCN(Cc3ccncc3)C(=O)O2)cc1OC1CCCC1` (centres unmarked) [Compound No. 14, 6-(3-cyclopentyloxy-4-methoxyphenyl)-3-(4-pyridylmethyl)-3,4,5,6-tetrahydro-2H-1,3-oxazin-2-one], the IC50 in test [1] was 6100 nM. Also, the ED50 in test [3] is 2.4 mg/kg.

With `COc1ccc(C2CCN(Cc3ccccn3)C(=O)O2)cc1OC1CCCC1` (centres unmarked) [Compound No. 16], it took 5500 nM to reach half-maximal inhibition in test [1] (IC50). Moreover, the ED50 in test [3] came out at 2.1 mg/kg.

In the case of `COc1ccc(C2CCN(Cc3cccnc3)C(=O)O2)cc1OC1CCCC1` (centres unmarked) [Compound No. 20, 6-(3-cyclopentyloxy-4-methoxyphenyl)-3-(3-pyridylmethyl)-3,4,5,6-tetrahydro-2H-1,3-oxazin-2-one], the IC50 in test [1] was 3500 nM. The ED50 in test [3] is 8.5 mg/kg.

Turning to `COc1ccc(C2(C)CCN(C)C(=O)O2)cc1OC1CCCC1` (centres unmarked) [Compound No. 21, 6-(3-cyclopentyloxy-4-methoxyphenyl)-3,6-dimethyl-3,4,5,6-tetrahydro-2H-1,3-oxazin-2-one], the IC50 in test [1] turned out to be 660 nM. The ED50 in test [3] was found to be 0.29 mg/kg.

Consider `COc1ccc(C2CCNC(=O)O2)cc1OCCc1ccccc1` (centres unmarked) [Compound No. 23, 6-(4-methoxy-3-phenethyloxyphenyl)-3,4,5,6-tetrahydro-2H-1,3-oxazin-2-one], for which half-maximal inhibition in test [1] (IC50) was put at 1500 nM. The 50% effective dose (ED50) in test [3] turned out to be 13.6 mg/kg.

With `COc1ccc(C2CCNC(=O)O2)cc1OC1Cc2ccccc2C1` (centres unmarked) [Compound No. 24, 6-[3-(2-indanyloxy)-4-methoxyphenyl]-3,4,5,6-tetrahydro-2H-1,3-oxazin-2-one], in test [1], the IC50 stood at 130 nM. Besides, the ED50 in test [3] stood at 1.6 mg/kg.

Take `COc1ccc(C2CCN(C)C(=O)O2)cc1OC1Cc2ccccc2C1` (centres unmarked) [Compound No. 25, 6-[3-(2-indanyloxy)-4-methoxyphenyl]-3-methyl-3,4,5,6-tetrahydro-2H-1,3-oxazin-2-one]: half-maximal inhibition in test [1] (IC50) required 190 nM. Further, the ED50 in test [3] was found to be 0.061 mg/kg.

In turn, `CCC1(c2ccc(OC)c(OC3CCCC3)c2)CCNC(=O)O1` (centres unmarked) [Compound No. 26, 6-(3-cyclopentyloxy-4-methoxyphenyl)-6-ethyl-3,4,5,6-tetrahydro-2H-1,3-oxazin-2-one] yielded an IC50 in test [1] of 3500 nM. The ED50 in test [3] stood at 2.4 mg/kg.

In test [1], `CCN1CCC(c2ccc(OC)c(OC3CCCC3)c2)OC1=O` (centres unmarked) [Compound No. 28, 6-(3-cyclopentyloxy-4-methoxyphenyl)-3-ethyl-3,4,5,6-tetrahydro-2H-1,3-oxazin-2-one] gave an IC50 of 1700 nM. For the same compound, the median effective dose (ED50) in test [3] was found to be 7.4 mg/kg.

`COc1ccc(C2(C)CCNC(=O)O2)cc1OC1Cc2ccccc2C1` (centres unmarked) [Compound No. 40, 6-[3-(2-indanyloxy)-4-methoxyphenyl]-6-methyl-3,4,5,6-tetrahydro-2H-1,3-oxazin-2-one]: the IC50 in test [1] was 50 nM. Moreover, in test [3], the ED50 was determined as 0.47 mg/kg.

`COc1ccc(C2(C)CCN(C)C(=O)O2)cc1OC1Cc2ccccc2C1` (centres unmarked) [Compound No. 43, 3,6-dimethyl-6-[3-(2-indanyloxy)-4-methoxyphenyl]-3,4,5,6-tetrahydro-2H-1,3-oxazin-2-one] yielded an IC50 in test [1] of 66 nM. In test [3], the ED50 turned out to be 0.29 mg/kg.

`COc1ccc(C2(C)CCNC(=O)O2)cc1OCCc1ccccc1` (centres unmarked) [Compound No. 46, 6-(4-methoxy-3-phenethyloxyphenyl)-6-methyl-3,4,5,6-tetrahydro-2H-1,3-oxazin-2-one] showed an IC50 in test [1] of 490 nM. The ED50 in test [3] came out at 11.4 mg/kg.

`COc1ccc(C2CCN(C)C(=O)O2)cc1OCC1CC1` (centres unmarked) [Compound No. 49, 6-(3-cyclopropylmethyloxy-4-methoxyphenyl)-3-methyl-3,4 5,6-tetrahydro-2H-1,3-oxazin-2-one]: in test [1], 2000 nM corresponded to half-maximal inhibition (IC50). The ED50 in test [3] was 3.1 mg/kg.

Compound `COc1ccc(C2(C)CCNC(=O)O2)cc1OCC1CC1` (centres unmarked) [Compound No. 50, 6-(3-cyclopropylmethyloxy-4-methoxyphenyl)-6-methyl-3,4,5,6-tetrahydro-2H-1,3-oxazin-2-one] displayed an IC50 in test [1] of 1100 nM. The ED50 in test [3] turned out to be 0.3 mg/kg.

In the case of `COc1ccc(C2(C)CCN(C)C(=O)O2)cc1OCC1CC1` (centres unmarked) [Compound No. 51, 6-(3-cyclopropylmethyloxy-4-methoxyphenyl)-3,6-dimethyl-3,4,5,6-tetrahydro-2H-1,3-oxazin-2-one], in test [1], the IC50 is 1900 nM. Moreover, the ED50 in test [3] is 2.23 mg/kg.

As for `COc1ccc(C2CCNC(=O)O2)cc1OCC1(c2ccccc2)CC1` (centres unmarked) [Compound No. 56, 6-[4-methoxy-3-[(1-phenylcyclopropyl)methyloxy]phenyl]-3,4,5,6-tetrahydro-2H-1,3-oxazin-2-one], the IC50 in test [1] was determined as 940 nM. For the same compound, the ED50 in test [3] was 1.72 mg/kg.

In turn, `COc1ccc(C2CCN(C)C(=O)O2)cc1OCC1(c2ccccc2)CC1` (centres unmarked) [Compound No. 57, 6-[4-methoxy-3-[(1-phenylcyclopropyl)methyloxy]phenyl]-3-methyl-3,4,5,6-tetrahydro-2H-1,3-oxazin-2-one] yielded an IC50 in test [1] of 1300 nM. The ED50 in test [3] amounted to 15.9 mg/kg.

In test [1], `COc1ccc(C2CCNC(=O)O2)cc1OCC1CCC1` (centres unmarked) [Compound No. 61, 6-(3-cyclobutylmethyloxy-4-methoxyphenyl)-3,4,5,6-tetrahydro-2H-1,3-oxazin-2-one] yielded an IC50 of 3200 nM. Moreover, the ED50 in test [3] was determined as 1.84 mg/kg.

In test [1], `COc1ccc(C2CCNC(=O)O2)cc1OCC(C)C` (centres unmarked) [Compound No. 65, 6-[4-methoxy-3-(2-methylpropoxy)phenyl]-3,4,5,6-tetrahydro-2H-1,3-oxazin-2-one] showed an IC50 of 2200 nM. For the same compound, in test [3], the ED50 amounted to 0.22 mg/kg.

`COc1ccc(C2CCN(C)C(=O)O2)cc1OCC(C)C` (centres unmarked) [Compound No. 66, 6-[4-methoxy-3-(2-methylpropoxy)phenyl]-3-methyl-3,4,5,6-tetrahydro-2H-1,3-oxazin-2-one] registered an IC50 in test [1] of 3800 nM. The ED50 in test [3] turned out to be 0.051 mg/kg.

Turning to `CCN1CCC(c2ccc(OC)c(OC3Cc4ccccc4C3)c2)OC1=O` (centres unmarked) [Compound No. 71, 3-ethyl-6-[3-(2-indanyloxy)-4-methoxyphenyl]-3,4,5,6-tetrahydro-2H-1,3-oxazin-2-one], the IC50 in test [1] was determined as 310 nM. Moreover, in test [3], the ED50 amounted to 2.67 mg/kg.

In test [1], `COc1ccc(C2CCNC(=O)O2)cc1OCC1CCCC1` (centres unmarked) [Compound No. 76, 6-(3-cyclopentylmethyloxy-4-methoxyphenyl)-3,4,5,6-tetrahydro-2H-1,3-oxazin-2-one] had an IC50 of 2900 nM. For the same compound, the ED50 in test [3] was 0.27 mg/kg.

Regarding `COc1ccc(C2(C)CCNC(=O)O2)cc1OCC(C)C` (centres unmarked) [Compound No. 81, 6-[4-methoxy-3-(2-methylpropoxy)phenyl]-6-methyl-3,4,5,6-tetrahydro-2H-1,3-oxazin-2-one], inhibition in test [1] was half-maximal at 1300 nM (IC50). In addition, the ED50 in test [3] came out at 0.028 mg/kg.

In turn, `COc1ccc(C2(C)CCN(C)C(=O)O2)cc1OCC(C)C` (centres unmarked) [Compound No. 82, 3,6-dimethyl-6-[4-methoxy-3-(2-methylpropoxy)phenyl]-3,4,5,6-tetrahydro-2H-1,3-oxazin-2-one] returned an IC50 in test [1] of 1900 nM. In addition, the ED50 in test [3] worked out at 0.045 mg/kg.
